The subject of test [1] is LH concentration in the blood. Nature of the test: In vivo LH inhibition in male castrate rats. More on the design: species or system rat. Particulars: AUC of log(LHt/LHi) over 24 hours, 30 ug/kg subcutaneous bolus. The protocol: The compound to be tested is administered at 30 μg/kg subcutaneously by bolus injection to male castrate rats and blood samples are collected periodically over 24 hours. The AUC (area under the curve) of the LH supression data as a function of time is calculated using the formula log (LHt /LHi) wherein LHt is the LH concentration in the blood at time t and LHi is the initial baseline value for the concentration of LH in the blood. The AUC values are negative numbers.

The target in a further test is T1, LHRH receptors (Rattus norvegicus, UniProt P30969).
T1 sequence (P30969 1-327): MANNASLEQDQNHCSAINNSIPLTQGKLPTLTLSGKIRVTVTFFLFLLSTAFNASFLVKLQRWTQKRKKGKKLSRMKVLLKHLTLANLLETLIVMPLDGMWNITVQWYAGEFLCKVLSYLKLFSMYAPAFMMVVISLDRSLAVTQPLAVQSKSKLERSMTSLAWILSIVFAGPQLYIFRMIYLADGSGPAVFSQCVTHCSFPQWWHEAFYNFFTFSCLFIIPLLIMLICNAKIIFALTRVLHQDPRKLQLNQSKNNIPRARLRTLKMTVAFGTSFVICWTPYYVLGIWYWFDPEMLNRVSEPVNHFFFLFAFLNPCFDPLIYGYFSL
In words: Radioligand receptor binding assay, rat pituitary membranes. Particulars: radioiodinated [D-Leu6-des Gly10]-LHRH ethyl amide 50 pM, 2 hours at 4° C., read-out: Receptor Binding pkI (converted). How it is done:
The radioligand (50 pM), receptors, and compounds to be tested are coincubated for 2 hours at 4° C. Bound ligand is separated from free ligand via centrifugation and aspiration.

Structures are written as SMILES. Starred links: 1 amine or outer side, 2 acyl side, 3 side chain; linkers in the order of their positions; H or OH if unused. Non-standard residues stand in square brackets, D forms with d. Residues, ends and D or L forms follow the SMILES beside them. Groups on a side chain read outwards from the residue. *: point of attachment. dAla(4-thiazolyl) = N[C@H](Cc1cscn1)C(=O)O; dPhe(4-Cl) = N[C@H](Cc1ccc(Cl)cc1)C(=O)O; d1Nal = N[C@H](Cc1cccc2ccccc12)C(=O)O; d2Nal = N[C@H](Cc1ccc2ccccc2c1)C(=O)O; dLys(iPr) = CC(C)NCCCC[C@@H](N)C(=O)O; d(hCit) = NC(=O)NCCCC[C@@H](N)C(=O)O; Lys(iPr) = CC(C)NCCCC[C@H](N)C(=O)O; NMeY = CN[C@@H](Cc1ccc(O)cc1)C(=O)O; dBta = N[C@H](Cc1csc2ccccc12)C(=O)O; Piperazinyl(4-Me) = CN1CCN(*)CC1; d3Pal = N[C@H](Cc1cccnc1)C(=O)O; Cha = N[C@@H](CC1CCCCC1)C(=O)O; d2Thi = N[C@H](Cc1cccs1)C(=O)O; NMeL = CN[C@@H](CC(C)C)C(=O)O; Nicotinoyl = O=C(c1cccnc1)*; NMeS = CN[C@@H](CO)C(=O)O; CO = O=C([*:1])[*:2]; Sar = CNCC(=O)O

The values below come from patent US5110904A (Abbott Laboratories, priority 1990, dated 1992).

Take `CC(=O)N[C@H](Cc1ccc2ccccc2c1)C(=O)N[C@H](Cc1ccc(Cl)cc1)C(=O)N[C@H](Cc1cccnc1)C(=O)N(C)[C@@H](CO)C(=O)N[C@@H](CCCCNC(=O)c1cccnc1)C(=O)N[C@H](CCCCNC(=O)c1cccnc1)C(=O)N[C@@H](CC(C)C)C(=O)N[C@@H](CCCCNC(C)C)C(=O)N1CCC[C@H]1C(=O)N[C@H](C)C(N)=O` [Ex. 35, N-Ac-D-2-Nal-D-4-Cl-Phe-D-3-Pal-N-Me-Ser-Lys-(N-epsilon-nicotinyl)-D-Lys-(N-epsilon-nicotinyl)-Leu-Lys-(N-epsilon-isopropyl)-Pro-D-AlaNH2] (Ac-[d2Nal][dPhe(4-Cl)][d3Pal][NMeS]K(Nicotinoyl)[dK](Nicotinoyl)L[Lys(iPr)]P[dA]-NH2): the “AUC (24 hr. after 30 ug/kg)” value in test [1] is on record as -510. Further, the Ki on LHRH receptors is 0.479 nM.

In the case of `CC(=O)N[C@H](Cc1ccc2ccccc2c1)C(=O)N[C@H](Cc1ccc(Cl)cc1)C(=O)N[C@H](Cc1cccnc1)C(=O)N[C@@H](CO)C(=O)N(C)[C@@H](Cc1ccc(O)cc1)C(=O)N[C@H](CCCCNC(=O)c1cccnc1)C(=O)N[C@@H](CC(C)C)C(=O)N[C@@H](CCCCNC(C)C)C(=O)N1CCC[C@H]1C(=O)N[C@H](C)C(N)=O` [Ex. 38, N-Ac-D-2-Nal-D-4-Cl-Phe-D-3-Pal-Ser-N-Me-Tyr-D-Lys(N-epsilon-nicotinyl)-Leu-Lys(N-epsilon-isopropyl)-Pro-D-AlaNH2] (Ac-[d2Nal][dPhe(4-Cl)][d3Pal]S[NMeY][dK](Nicotinoyl)L[Lys(iPr)]P[dA]-NH2), the “AUC (24 hr. after 30 ug/kg)” value in test [1] was -1000. The Ki on LHRH receptors is 0.0316 nM.

On to `CC(=O)N[C@H](Cc1ccc2ccccc2c1)C(=O)N[C@H](Cc1ccc(Cl)cc1)C(=O)N[C@H](Cc1cscn1)C(=O)N[C@@H](CO)C(=O)N(C)[C@@H](Cc1ccc(O)cc1)C(=O)N[C@H](CCCCNC(=O)c1cccnc1)C(=O)N[C@@H](CC(C)C)C(=O)N[C@@H](CCCCNC(C)C)C(=O)N1CCC[C@H]1C(=O)N[C@H](C)C(N)=O` [Ex. 43, N-Ac-D-2-Nal-D-4-Cl-Phe-D-4-Thiaz-Ser-N-Me-Tyr-D-Lys-(N-epsilon-nicotinyl)-Leu-Lys(N-epsilon-isopropyl)-Pro-D-AlaNH2] (Ac-[d2Nal][dPhe(4-Cl)][dAla(4-thiazolyl)]S[NMeY][dK](Nicotinoyl)L[Lys(iPr)]P[dA]-NH2), for which the “AUC (24 hr. after 30 ug/kg)” value in test [1] is listed as -337. For the same molecule, on LHRH receptors, the Ki was 0.0339 nM.

In the case of `CC(=O)N[C@H](Cc1ccc(Cl)cc1)C(=O)N[C@H](Cc1ccc(Cl)cc1)C(=O)N[C@H](Cc1cccc2ccccc12)C(=O)N[C@@H](CO)C(=O)N(C)[C@@H](Cc1ccc(O)cc1)C(=O)N[C@H](CCCCN)C(=O)N[C@@H](CC(C)C)C(=O)N[C@@H](CCCNC(=N)N)C(=O)N1CCC[C@H]1C(=O)N[C@H](C)C(N)=O` [Ex. 46, N-Ac-D-4-Cl-Phe-D-4-Cl-Phe-D-1-Nal-Ser-N-Me-Tyr-D-Lys-Leu-Arg-Pro-D-AlaNH2] (Ac-[dPhe(4-Cl)][dPhe(4-Cl)][d1Nal]S[NMeY][dK]LRP[dA]-NH2), the “AUC (24 hr. after 30 ug/kg)” value in test [1] is on record as -1513.

In the case of `CC(=O)N[C@H](Cc1ccc(Cl)cc1)C(=O)N[C@H](Cc1ccc(Cl)cc1)C(=O)N[C@H](Cc1ccc2ccccc2c1)C(=O)N[C@@H](CO)C(=O)N(C)[C@@H](Cc1ccc(O)cc1)C(=O)N[C@H](CCCCNC(=O)c1cccnc1)C(=O)N(C)[C@@H](CC(C)C)C(=O)N[C@@H](CCCNC(=N)N)C(=O)N1CCC[C@H]1C(=O)N[C@H](C)C(N)=O` [Ex. 57, N-Ac-D-4-Cl-Phe-D-4-Cl-Phe-D-2-Nal-Ser-N-Me-Tyr-D-Lys(N-epsilon-nicotinyl)- N-Me-Leu-Arg-Pro-D-AlaNH2] (Ac-[dPhe(4-Cl)][dPhe(4-Cl)][d2Nal]S[NMeY][dK](Nicotinoyl)[NMeL]RP[dA]-NH2), the Ki at LHRH receptors is 0.372 nM.

For `CC(=O)N[C@H](Cc1ccc(Cl)cc1)C(=O)N[C@H](Cc1ccc(Cl)cc1)C(=O)N[C@H](Cc1cccs1)C(=O)N[C@@H](CO)C(=O)N[C@@H](Cc1ccc(O)cc1)C(=O)N[C@H](CCCCN)C(=O)N[C@@H](CC(C)C)C(=O)N[C@@H](CCCNC(=N)N)C(=O)N1CCC[C@H]1C(=O)N(C)CC(N)=O` [Ex. 58, N-Ac-D-4-Cl-Phe-D-4-Cl-Phe-D-2-Thia-Ser-Tyr-D-Lys-Leu-Arg-Pro-SarNH2] (Ac-[dPhe(4-Cl)][dPhe(4-Cl)][d2Thi]SY[dK]LRP[Sar]-NH2), on LHRH receptors, the Ki is 0.00871 nM.

`CC(=O)N[C@H](Cc1ccc(Cl)cc1)C(=O)N[C@H](Cc1ccc(Cl)cc1)C(=O)N[C@H](Cc1cccc2ccccc12)C(=O)N[C@@H](CO)C(=O)N(C)[C@@H](Cc1ccc(O)cc1)C(=O)N[C@H](CCCCNC(N)=O)C(=O)N[C@@H](CC(C)C)C(=O)N[C@@H](CCCNC(=N)N)C(=O)N1CCC[C@H]1C(=O)N[C@H](C)C(N)=O` [Ex. 59, N-Ac-D-4-Cl-Phe-D-4-Cl-Phe-D-1-Nal-Ser-N-Me-Tyr-D-H-Cit-Leu-Arg-Pro-D-AlaNH2] (Ac-[dPhe(4-Cl)][dPhe(4-Cl)][d1Nal]S[NMeY][d(hCit)]LRP[dA]-NH2): the Ki at LHRH receptors was 0.0977 nM.

`CC(=O)N[C@H](Cc1ccc(Cl)cc1)C(=O)N[C@H](Cc1ccc(Cl)cc1)C(=O)N[C@H](Cc1csc2ccccc12)C(=O)N[C@@H](CO)C(=O)N(C)[C@@H](Cc1ccc(O)cc1)C(=O)N[C@H](CCCCNC(C)C)C(=O)N[C@@H](CC(C)C)C(=O)N[C@@H](CCCNC(=N)N)C(=O)N1CCC[C@H]1C(=O)N[C@H](C)C(N)=O` [Ex. 60, N-Ac-D-4-Cl-Phe-D-4-Cl-Phe-D-3-Bal-Ser-N-Tyr-D-Lys(N-epsilon-isopropyl)-Leu-Arg-Pro-D-AlaNH2] (Ac-[dPhe(4-Cl)][dPhe(4-Cl)][dBta]S[NMeY][dLys(iPr)]LRP[dA]-NH2): the Ki on LHRH receptors was 0.0229 nM.

For `CC(=O)N[C@H](Cc1ccc2ccccc2c1)C(=O)N[C@H](Cc1ccc(Cl)cc1)C(=O)N[C@H](Cc1cccnc1)C(=O)N[C@@H](CO)C(=O)N(C)[C@@H](Cc1ccc(O)cc1)C(=O)N[C@H](Cc1cccnc1)C(=O)N[C@@H](CC(C)C)C(=O)N[C@@H](CCCCNC(C)C)C(=O)N1CCC[C@H]1C(=O)N[C@H](C)C(N)=O` [Ex. 61, N-Ac-D-2-Nal-D-4-Cl-Phe-D-3-Pal-Ser-N-Me-Tyr-D-3-Pal-Leu-Lys(N-epsilon-isopropyl)-Pro-D-AlaNH2] (Ac-[d2Nal][dPhe(4-Cl)][d3Pal]S[NMeY][d3Pal]L[Lys(iPr)]P[dA]-NH2), at LHRH receptors, the Ki was 0.049 nM.

In the case of `CC(=O)N(C)CC(=O)N[C@H](Cc1ccc(Cl)cc1)C(=O)N[C@H](Cc1csc2ccccc12)C(=O)N[C@@H](CO)C(=O)N(C)[C@@H](Cc1ccc(O)cc1)C(=O)N[C@H](CCCCNC(=O)c1cccnc1)C(=O)N[C@@H](CC(C)C)C(=O)N[C@@H](CCCCNC(C)C)C(=O)N1CCC[C@H]1C(=O)N[C@H](C)C(N)=O` [Ex. 64, N-Ac-Sar-D-4-Cl-Phe-D-3-Bal-Ser-N-Me-Tyr-D-Lys(N-epsilon-nicotinyl)-Leu-Lys(N-epsilon-isopropyl)-Pro-D-Ala-NH2] (Ac-[Sar][dPhe(4-Cl)][dBta]S[NMeY][dK](Nicotinoyl)L[Lys(iPr)]P[dA]-NH2), the Ki on LHRH receptors was 0.0102 nM.

Regarding `CC(=O)N[C@H](Cc1ccc2ccccc2c1)C(=O)N[C@H](Cc1ccc(Cl)cc1)C(=O)N[C@H](Cc1cccnc1)C(=O)N[C@@H](CO)C(=O)N(C)[C@@H](Cc1ccc(O)cc1)C(=O)N[C@H](CCCCNC(=O)c1cccnc1)C(=O)N[C@@H](CC1CCCCC1)C(=O)N[C@@H](CCCNC(=N)N)C(=O)N1CCC[C@H]1C(=O)N[C@H](C)C(N)=O` [Ex. 66, N-Ac-D-2-Nal-D-4-Cl-Phe-D-3-Pal-Ser-N-Me-Tyr-D-Lys(N-epsilon-nicotinyl)-Cha-Arg-Pro-D-AlaNH2] (Ac-[d2Nal][dPhe(4-Cl)][d3Pal]S[NMeY][dK](Nicotinoyl)[Cha]RP[dA]-NH2), at LHRH receptors, the Ki was 0.0141 nM.

Consider `CC(=O)N[C@H](Cc1ccc(Cl)cc1)C(=O)N[C@H](Cc1ccc(Cl)cc1)C(=O)N[C@H](Cc1cccs1)C(=O)N[C@@H](CO)C(=O)N(C)[C@@H](Cc1ccc(O)cc1)C(=O)N[C@H](CCCCNC(=O)c1cccnc1)C(=O)N(C)[C@@H](CC(C)C)C(=O)N[C@@H](CCCNC(=N)N)C(=O)N1CCC[C@H]1C(=O)N[C@H](C)C(N)=O` [Ex. 68, N-Ac-D-4-Cl-Phe-D-4-Cl-Phe-D-2-Thia-Ser-N-Me-Tyr-D-Lys(N-epsilon-nicotinyl)-N-Me-Leu-Arg-Pro-D-Ala-NH2] (Ac-[dPhe(4-Cl)][dPhe(4-Cl)][d2Thi]S[NMeY][dK](Nicotinoyl)[NMeL]RP[dA]-NH2), for which the Ki on LHRH receptors was 0.12 nM.

For `CC(=O)N[C@H](Cc1ccc2ccccc2c1)C(=O)N[C@H](Cc1ccc(Cl)cc1)C(=O)N[C@H](Cc1cccnc1)C(=O)N[C@@H](CO)C(=O)N(C)[C@@H](Cc1ccc(O)cc1)C(=O)N[C@H](CCCCNC(=O)N1CCN(C)CC1)C(=O)N[C@@H](CC(C)C)C(=O)N[C@@H](CCCCNC(C)C)C(=O)N1CCC[C@H]1C(=O)N[C@H](C)C(N)=O` [Ex. 70, N-Ac-D-2--Nal-D-4-Cl-Phe-D-3-Pal-Ser-N-Me-Tyr-D-Lys(N-epsilon-CO-NMePip)-Leu-Lys(N-epsilon-isopropyl)-Pro-D-AlaNH2] (Ac-[d2Nal][dPhe(4-Cl)][d3Pal]S[NMeY][dK]([CO-Piperazinyl(4-Me)])L[Lys(iPr)]P[dA]-NH2), the Ki at LHRH receptors is 0.012 nM.
